Measured values as given in patent publication US20230265151A1, “GIP/GLP1 CO-AGONIST COMPOUNDS” (priority 2020, published 2023).
Where two headings read alike, the source gives them in different places.

How the values were obtained:
Assay type in all cases: cell-based
[1] = biological target: T1, hGIPR (Homo sapiens, UniProt P48546); assay: Functional cAMP formation (HTRF) in HEK-293 clonal cells expressing hGIPR, 0.1% bovine casein, without or with 1.0% human serum albumin; conditions: for EC50: geometric mean
T1 construct: expressed in transfected cells
T1 sequence (P48546 22-466): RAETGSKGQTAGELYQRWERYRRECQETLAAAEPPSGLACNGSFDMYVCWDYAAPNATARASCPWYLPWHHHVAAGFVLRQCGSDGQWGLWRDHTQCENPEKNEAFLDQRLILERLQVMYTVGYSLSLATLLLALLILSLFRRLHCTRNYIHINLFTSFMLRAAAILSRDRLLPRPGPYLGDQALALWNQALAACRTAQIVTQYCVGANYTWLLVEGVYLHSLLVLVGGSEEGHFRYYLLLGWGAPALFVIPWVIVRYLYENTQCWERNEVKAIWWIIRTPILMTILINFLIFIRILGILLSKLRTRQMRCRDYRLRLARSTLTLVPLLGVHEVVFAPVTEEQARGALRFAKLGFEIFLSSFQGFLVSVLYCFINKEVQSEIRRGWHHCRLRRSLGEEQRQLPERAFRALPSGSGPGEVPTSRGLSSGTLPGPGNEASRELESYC
Method in brief: (§1)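 Cells were stimulated with peptide for 30 min at 37° C, then intracellular cAMP was measured by competitive HTRF (665/620 nm ratio) and converted to nM using a cAMP standard curve. Relative EC50 and Emax came from four-parameter logistic fits of percent maximal response against peptide concentration.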

[2] = biological target: T2, hGCGR (Homo sapiens, UniProt P47871); assay: Functional cAMP formation (HTRF) in HEK-293 clonal cells expressing hGCGR, 0.1% bovine casein, without or with 1.0% human serum albumin
T2 construct: expressed in transfected cells
Method in brief: as §1

[3] = biological target: hGLP-1R (Homo sapiens, UniProt P43220); assay: Functional cAMP formation (HTRF) in HEK-293 clonal cells expressing hGLP-1R, 0.1% bovine casein, without or with 1.0% human serum albumin; set-up: expressed in transfected cells; conditions: for EC50: geometric mean
Method in brief: as §1

[4] = hGIPR EC50, nM (SEM, n), cAMP, 37° C., 0.1% bovine casein (no human serum albumin)
[5] = hGCGR EC50, nM (SEM, n), cAMP, 37° C., 0.1% bovine casein (no human serum albumin), geometric mean
[6] = hGLP-1R EC50, nM (SEM, n), cAMP, 37° C., 0.1% bovine casein (no human serum albumin)
[7] = HEK293, read-out: hGIPR Emax, % ± SEM, percent of maximal response to GIP(1-42)NH2, 37° C., 0.1% bovine casein, arithmetic mean
[8] = hGCGR EC50, nM (SEM, n), cAMP, incubated at 37° C., 0.1% bovine casein (no human serum albumin), geometric mean
[9] = HEK293, read-out: hGLP-1R Emax, % ± SEM, percent of maximal response to GLP-1(7-36)NH2, 37° C., 0.1% bovine casein, arithmetic mean

hGLP-1R, sequence (P43220 24-463): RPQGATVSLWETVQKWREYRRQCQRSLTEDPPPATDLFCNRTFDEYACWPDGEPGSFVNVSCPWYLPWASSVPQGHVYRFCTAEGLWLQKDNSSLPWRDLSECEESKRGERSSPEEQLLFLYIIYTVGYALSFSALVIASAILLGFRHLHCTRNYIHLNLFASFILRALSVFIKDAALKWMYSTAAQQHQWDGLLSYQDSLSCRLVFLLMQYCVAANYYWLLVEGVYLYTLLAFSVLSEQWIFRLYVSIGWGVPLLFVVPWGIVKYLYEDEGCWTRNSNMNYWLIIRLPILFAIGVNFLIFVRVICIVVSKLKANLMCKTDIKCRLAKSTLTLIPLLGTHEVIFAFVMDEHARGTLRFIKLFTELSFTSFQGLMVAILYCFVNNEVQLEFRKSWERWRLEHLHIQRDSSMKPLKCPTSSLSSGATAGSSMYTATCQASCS
T2 sequence (P47871 26-477): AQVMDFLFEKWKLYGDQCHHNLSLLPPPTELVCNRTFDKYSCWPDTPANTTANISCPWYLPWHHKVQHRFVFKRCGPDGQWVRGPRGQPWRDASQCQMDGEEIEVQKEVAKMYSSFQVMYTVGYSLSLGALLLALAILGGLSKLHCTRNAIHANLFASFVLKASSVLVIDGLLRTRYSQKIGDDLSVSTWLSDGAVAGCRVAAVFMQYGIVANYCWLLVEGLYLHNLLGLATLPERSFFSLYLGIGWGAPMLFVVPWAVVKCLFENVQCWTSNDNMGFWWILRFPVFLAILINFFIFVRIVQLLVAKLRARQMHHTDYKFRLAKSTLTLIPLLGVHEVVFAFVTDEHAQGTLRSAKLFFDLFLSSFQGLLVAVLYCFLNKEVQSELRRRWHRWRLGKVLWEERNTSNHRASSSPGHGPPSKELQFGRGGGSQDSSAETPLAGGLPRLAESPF

Structure (SMILES): CC[C@H](C)[C@H](NC(=O)[C@H](CC(C)C)NC(=O)[C@](C)(Cc1ccc(O)cc1)NC(=O)[C@@H](CCC(=O)O)NC(=O)[C@@H](NC(=O)[C@H](Cc1ccccc1)NC(=O)[C@H](CCC(=O)O)NC(=O)C(C)(C)NC(=O)[C@H](CCC(N)=O)NC(=O)[C@H](C)NC(=O)[C@H](CCCCNC(=O)COCCOCCNC(=O)COCCOCCNC(=O)CC[C@H](NC(=O)CCCCCCCCCCOc1ccc(C(=O)O)cc1)C(=O)O)NC(=O)[C@H](CCCN)NC(=O)[C@H](CC(=O)O)NC(=O)[C@H](CC(C)C)NC(=O)[C@](C)(CC(C)C)NC(=O)[C@@H](NC(=O)[C@H](CO)NC(=O)[C@H](Cc1ccncc1)NC(=O)[C@H](CC(=O)O)NC(=O)[C@H](CO)NC(=O)[C@@H](NC(=O)[C@](C)(Cc1ccccc1F)NC(=O)[C@@H](NC(=O)CNC(=O)[C@H](CCC(=O)O)NC(=O)C(C)(C)NC(=O)[C@@H](N)Cc1ccc(O)cc1)[C@@H](C)O)[C@@H](C)O)[C@@H](C)CC)[C@@H](C)CC)C(=O)N[C@@H](CCC(=O)O)C(=O)NCC(=O)NCC(=O)N1CCC[C@H]1C(=O)N[C@@H](CO)C(=O)N[C@@H](CO)C(=O)NCC(=O)N[C@@H](C)C(=O)N1CCC[C@H]1C(=O)N1CCC[C@H]1C(=O)N1CCC[C@H]1C(=O)N[C@@H](CO)C(=O)N[C@@H](CCCCNC(=O)COCCOCCNC(=O)COCCOCCNC(=O)CC[C@H](NC(=O)CCCCCCCCCCOc1ccc(C(=O)O)cc1)C(=O)O)C(N)=O [Example 285]
- Emax ([1]; HEK293, read-out: hGIPR Emax, % ± SEM, 0.1% bovine casein and 1.0% human serum albumin, 37° C., percent of maximal response to GIP(1-42)NH2): 84.7%
- EC50 ([1]; hGIPR EC50, nM (SEM, n), 0.1% bovine casein and 1.0% human serum albumin, 37° C.): 1.28 nM
- EC50 [1, 4]: 0.0115 nM
- EC50 ([2]; hGCGR EC50, nM (SEM, n), 0.1% bovine casein and 1.0% human serum albumin, 37° C., geometric mean): > 9950 nM
- EC50 [2, 5]: > 9950 nM
- Emax ([3]; HEK293, read-out: hGLP-1R Emax, % ± SEM, 0.1% bovine casein and 1.0% human serum albumin, 37° C., percent of maximal response to GLP-1(7-36)NH2): 105%
- EC50 [3, 6]: 1.21 nM

Structure (SMILES): CC[C@H](C)[C@H](NC(=O)[C@H](CC(C)C)NC(=O)[C@](C)(Cc1ccc(O)cc1)NC(=O)[C@@H](CCC(=O)O)NC(=O)[C@@H](NC(=O)[C@H](Cc1ccccc1)NC(=O)[C@H](CCCCNC(=O)COCCOCCNC(=O)COCCOCCNC(=O)CC[C@H](NC(=O)CCCCCCCCCCCCC(=O)O)C(=O)O)NC(=O)C(C)(C)NC(=O)[C@H](CCC(N)=O)NC(=O)[C@H](C)NC(=O)[C@H](CCCCNC(=O)COCCOCCNC(=O)COCCOCCNC(=O)CC[C@H](NC(=O)CCCCCCCCCCCCC(=O)O)C(=O)O)NC(=O)[C@H](CCCN)NC(=O)[C@H](CC(=O)O)NC(=O)[C@H](CC(C)C)NC(=O)[C@](C)(CC(C)C)NC(=O)[C@@H](NC(=O)[C@H](CO)NC(=O)[C@H](Cc1ccc2ccccc2c1)NC(=O)[C@H](CC(=O)O)NC(=O)[C@H](CO)NC(=O)[C@@H](NC(=O)[C@](C)(Cc1ccccc1F)NC(=O)[C@@H](NC(=O)CNC(=O)[C@H](CCC(=O)O)NC(=O)C(C)(C)NC(=O)[C@@H](N)Cc1ccc(O)cc1)[C@@H](C)O)[C@@H](C)O)[C@@H](C)CC)[C@@H](C)CC)C(=O)N[C@@H](CCC(=O)O)C(=O)NCC(=O)NCC(=O)N1CCC[C@H]1C(=O)N[C@@H](CO)C(=O)N[C@@H](CO)C(=O)NCC(=O)N[C@@H](C)C(=O)N1CCC[C@H]1C(=O)N1CCC[C@H]1C(=O)N1CCC[C@H]1C(=O)N[C@@H](CO)C(N)=O [Example 249]
- Emax ([1]; HEK293, 0.1% bovine casein and 1.0% human serum albumin, 37° C., percent of maximal response to GIP(1-42)NH2, read-out: hGIPR Emax, % ± SEM): 88.9%
- EC50 ([1]; cAMP, 37° C., 0.1% bovine casein (no human serum albumin), read-out: hGIPR EC50, nM (SEM, n)): 0.0201 nM
- EC50 ([2]; 0.1% bovine casein and 1.0% human serum albumin, 37° C., geometric mean, read-out: hGCGR EC50, nM (SEM, n)): > 9950 nM
- EC50 ([2]; cAMP, 37° C., 0.1% bovine casein (no human serum albumin), geometric mean, read-out: hGCGR EC50, nM (SEM, n)): > 9950 nM
- EC50 ([3]; 0.1% bovine casein and 1.0% human serum albumin, 37° C., read-out: hGLP-1R EC50, nM (SEM, n)): 51.6 nM
- EC50 ([3]; cAMP, 37° C., 0.1% bovine casein (no human serum albumin), read-out: hGLP-1R EC50, nM (SEM, n)): 0.3 nM

Structure (SMILES): CC[C@H](C)[C@H](NC(=O)[C@H](CC(C)C)NC(=O)[C@](C)(Cc1ccc(O)cc1)NC(=O)[C@@H](CCC(=O)O)NC(=O)[C@@H](NC(=O)[C@H](Cc1ccccc1)NC(=O)[C@H](CCCCNC(=O)COCCOCCNC(=O)COCCOCCNC(=O)CC[C@H](NC(=O)CCCCCCCCCOc1ccc(C(=O)O)cc1)C(=O)O)NC(=O)C(C)(C)NC(=O)[C@H](CCC(N)=O)NC(=O)[C@H](C)NC(=O)[C@H](CCCCNC(=O)COCCOCCNC(=O)COCCOCCNC(=O)CC[C@H](NC(=O)CCCCCCCCCOc1ccc(C(=O)O)cc1)C(=O)O)NC(=O)[C@H](CCCN)NC(=O)[C@H](CC(=O)O)NC(=O)[C@H](CC(C)C)NC(=O)[C@](C)(CC(C)C)NC(=O)[C@@H](NC(=O)C(C)(C)NC(=O)[C@H](Cc1ccncc1)NC(=O)[C@H](CC(=O)O)NC(=O)[C@H](CO)NC(=O)[C@@H](NC(=O)[C@](C)(Cc1ccccc1F)NC(=O)[C@@H](NC(=O)CNC(=O)[C@H](CCC(=O)O)NC(=O)C(C)(C)NC(=O)[C@@H](N)Cc1ccc(O)cc1)[C@@H](C)O)[C@@H](C)O)[C@@H](C)CC)[C@@H](C)CC)C(=O)N[C@@H](CCCN)C(=O)NCC(=O)NCC(=O)N1CCC[C@H]1C(=O)N[C@@H](CO)C(=O)N[C@@H](CO)C(=O)NCC(=O)N[C@@H](C)C(=O)N1CCC[C@H]1C(=O)N1CCC[C@H]1C(=O)N1CCC[C@H]1C(=O)N[C@@H](CO)C(N)=O [Example 408]
- Emax ([1]; HEK293, read-out: hGIPR Emax, % ± SEM, cAMP, 37° C., 0.1% bovine casein and 1.0% human serum albumin, percent of maximal response to GIP(1-42)NH2): 84.4%
- EC50 [1, 4]: 0.00888 nM
- EC50 [2, 5]: > 9950 nM
- EC50 ([2]; hGCGR EC50, nM (SEM, n), cAMP, 37° C., 0.1% bovine casein and 1.0% human serum albumin, geometric mean (SEM, n)): > 9950 nM
- EC50 [3, 6]: 0.227 nM

Structure (SMILES): CC[C@H](C)[C@H](NC(=O)[C@H](CC(C)C)NC(=O)[C@](C)(Cc1ccc(O)cc1)NC(=O)[C@H](CCCCNC(=O)COCCOCCNC(=O)COCCOCCNC(=O)[C@@H](N)CCCCNC(=O)CCCCCCCCCCCCC(=O)O)NC(=O)[C@@H](NC(=O)[C@H](Cc1ccccc1)NC(=O)[C@H](CCC(=O)O)NC(=O)C(C)(C)NC(=O)[C@H](CCC(N)=O)NC(=O)[C@H](C)NC(=O)[C@H](CCCCNC(=O)COCCOCCNC(=O)COCCOCCNC(=O)[C@@H](N)CCCCNC(=O)CCCCCCCCCCCCC(=O)O)NC(=O)[C@H](CCCN)NC(=O)[C@H](CC(=O)O)NC(=O)[C@H](CC(C)C)NC(=O)[C@](C)(CC(C)C)NC(=O)[C@@H](NC(=O)C(C)(C)NC(=O)[C@@H](NC(=O)[C@H](CC(=O)O)NC(=O)[C@H](CO)NC(=O)[C@@H](NC(=O)[C@](C)(Cc1ccccc1F)NC(=O)[C@@H](NC(=O)CNC(=O)[C@H](CCC(=O)O)NC(=O)C(C)(C)NC(=O)[C@@H](N)Cc1ccc(O)cc1)[C@@H](C)O)[C@@H](C)O)C(C)C)[C@@H](C)CC)[C@@H](C)CC)C(=O)N[C@@H](CCC(=O)O)C(=O)NCC(=O)NCC(=O)N1CCC[C@H]1C(=O)N[C@@H](CO)C(=O)N[C@@H](CO)C(=O)NCC(=O)N[C@@H](C)C(=O)N1CCC[C@H]1C(=O)N1CCC[C@H]1C(=O)N1CCC[C@H]1C(=O)N[C@@H](CO)C(N)=O [Example 166]
- Emax [1, 7]: 97%
- EC50 [2, 8]: > 9950 nM
- Emax [3, 9]: 90.3%
- EC50 ([3]; hGLP-1R EC50, nM (SEM, n), cAMP, incubated at 37° C., 0.1% bovine casein (no human serum albumin)): 0.192 nM

Structure (SMILES): CC[C@H](C)[C@H](NC(=O)[C@H](CC(C)C)NC(=O)[C@](C)(Cc1ccc(O)cc1)NC(=O)[C@H](CCCCNC(=O)COCCOCCNC(=O)COCCOCCNC(=O)CC[C@H](NC(=O)CCCCCCCCCCCCC(=O)O)C(=O)O)NC(=O)[C@@H](NC(=O)[C@](C)(Cc1ccccc1)NC(=O)[C@H](CCC(=O)O)NC(=O)C(C)(C)NC(=O)[C@H](CCC(N)=O)NC(=O)[C@H](C)NC(=O)[C@H](CCCCNC(=O)COCCOCCNC(=O)COCCOCCNC(=O)CC[C@H](NC(=O)CCCCCCCCCCCCC(=O)O)C(=O)O)NC(=O)[C@H](CCCN)NC(=O)[C@H](CC(=O)O)NC(=O)[C@H](CC(C)C)NC(=O)[C@](C)(CC(C)C)NC(=O)[C@@H](NC(=O)C(C)(C)NC(=O)[C@H](Cc1ccncc1)NC(=O)[C@H](CC(=O)O)NC(=O)[C@H](CO)NC(=O)[C@@H](NC(=O)[C@](C)(Cc1ccccc1F)NC(=O)[C@@H](NC(=O)CNC(=O)[C@H](CCC(=O)O)NC(=O)C(C)(C)NC(=O)[C@@H](N)Cc1ccc(O)cc1)[C@@H](C)O)[C@@H](C)O)[C@@H](C)CC)[C@@H](C)CC)C(=O)N[C@@H](CCC(=O)O)C(=O)NCC(=O)NCC(=O)N1CCC[C@H]1C(=O)N[C@@H](CO)C(=O)N[C@@H](CO)C(=O)NCC(=O)N[C@@H](C)C(=O)N1CCC[C@H]1C(=O)N1CCC[C@H]1C(=O)N1CCC[C@H]1C(=O)N[C@@H](CO)C(N)=O [Example 117]
- Emax [1, 7]: 96.4%
- EC50 [2, 8]: > 9950 nM
- Emax [3, 9]: 98.2%
